Among the data in PubChem BioAssay (NCI) are GI50 and TGI values, retold here.

What all share (experiment): NCI anticancer screen, dose series, 48 h
The test system of experiment [1] is BT-549 breast.
For experiment [2], the system named is CAKI-1 renal.
For experiment [3], the system named is COLO 205 colon.
Experiment [4] relates to IGROV1 ovarian.
For experiment [5], the system named is KM12 colon.
The subject of experiment [6] is SK-MEL-2 melanoma.
Experiment [7] has as its system SN12C renal.
Experiment [8] has as its system T-47D breast.
The subject of experiment [9] is UACC-257 melanoma.
In experiment [10] the test system is UO-31 renal.

Values joined by “and” are separate entries in the source; they are usually repeats but may differ in a detail not shown here. Equal values may be shown once.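 Five concentrations, 48 hours, 96-well plates. GI50: concentration for 50% inhibition of growth. At the TGI there is no net growth.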

As to `Fc1ccc(-c2nn3c(-c4ccc(F)c(Cl)c4)nnc3s2)cc1`, the GI50 in experiment [1] is 33.2 µM; in experiment [2], 26 µM; in [3] it was greater than 50 µM; in experiment [4], 33.1 µM; in experiment [5], greater than 50 µM; in [6], greater than 50 µM. Besides, the GI50 was 32.3 µM in experiment [7], 34.8 µM in [8], 10.6 µM in [9] and 28.6 µM in experiment [10]. In addition, the TGI in [1], in [2], in experiment [3], in experiment [4], in experiment [5] and in [6] was greater than 50 µM in each case. For the same compound, the TGI in experiment [7] is greater than 50 µM; in [8] it was greater than 50 µM; in experiment [9], 41.6 µM; in experiment [10] it was greater than 50 µM.
With `CCC1C(=O)OCc2c1cc1n(c2=O)Cc2cc3ccccc3nc2-1` (stereo not drawn), the TGI in experiment [1] was greater than 59.5 µM; in [2], 16.3 µM; in [3], greater than 100 µM; in [4], greater than 100 µM; in [5], greater than 100 µM; in [6] it was greater than 100 µM. For the same compound, the TGI in experiment [7] is greater than 100 µM; in [8] it was greater than 90.2 µM; in experiment [9], greater than 100 µM; in [10], 11.7 µM.
For the compound `CC(C)Nc1ccc(Nc2ccccc2)cc1`, the GI50 in [1] is 11.3 µM; in [2] it was 4.06 µM; in experiment [3] it was 14.3 µM; in [4] it was 14.2 µM; in [5], 22.4 µM; in experiment [6] it was 25.6 µM. In addition, the GI50 in experiment [7] was 27.1 µM; in experiment [8], 15.5 µM; in experiment [9], 15.6 µM; in [10] it was 14.1 µM. Moreover, the TGI was 33.9 µM in experiment [1]; 17.4 µM in [2]; 31.3 µM in [3]; 37.3 µM in experiment [4]; greater than 100 µM in [5]; 66.3 µM in experiment [6]. The TGI was greater than 100 µM in experiment [7], 38.8 µM in experiment [8], 31.5 µM in [9] and 64.9 µM in [10].
Turning to `N=C(N)c1ccc(OCCOCCOc2ccc(C(=N)N)cc2)cc1`, the GI50 in experiment [1] was 53.5 µM; in experiment [2], greater than 100 µM; in experiment [3], 50.1 µM; in experiment [4], greater than 100 µM; in [5], 41.6 µM; in experiment [6], 38.2 µM. The GI50 in [7] was 58.8 µM; in [8], 82.5 µM; in experiment [9], 38.3 µM; in experiment [10] it was 71.5 µM. The TGI in experiment [1], in experiment [2], in experiment [3], in experiment [4], in [5] and in experiment [6] was greater than 100 µM in each case. Moreover, the TGI in [7], in [8], in experiment [9] and in experiment [10] was greater than 100 µM throughout.
With `CCCCCc1nc2c(c3c1CCCC3)CCCC2`, the GI50 in experiment [1] was 10.7 µM; in experiment [2], 3.98 µM; in experiment [3], 10.2 µM; in experiment [4], 5.73 µM; in experiment [5], 6.94 µM; in [6], 12.7 µM. In addition, the GI50 is 12.3 µM in [7], 6.2 µM in experiment [8], 9.7 µM in experiment [9] and 2.19 µM in [10]. Moreover, the TGI in experiment [1] is 24.4 µM; in experiment [2], 24 µM; in experiment [3], 22.1 µM; in experiment [4], 26.2 µM; in experiment [5], 33.7 µM; in experiment [6] it was 27.4 µM. In addition, the TGI was 34.2 µM in [7], 24.9 µM in experiment [8], 31.6 µM in experiment [9] and 13.9 µM in experiment [10].
For the compound `Cc1cc(Cl)cc2c(N=Nc3ccccc3[N+](=O)[O-])c(O)[nH]c12`, the TGI in [1], in experiment [2], in [3], in [4], in experiment [5] and in experiment [6] was greater than 100 µM each time. For the same compound, the TGI in [7], in experiment [8], in [9] and in experiment [10] was greater than 100 µM each time.
Regarding `CN(Cc1ccc(Cl)cc1)c1ccc(CO)c(Cl)c1`, the GI50 in experiment [1] is 5.31 µM; in experiment [2] it was 1.43 µM; in experiment [3], 5.95 µM; in [4], 0.365 µM; in [5], 13 µM; in experiment [6] it was 4.06 µM. Further, the GI50 was 8.55 µM in experiment [7], 0.764 µM in [8], 0.515 µM in experiment [9] and 3.23 µM in [10]. Also, the TGI in experiment [1] was found to be 19.9 µM; in [2], 12 µM; in experiment [3], 18.1 µM; in experiment [4], 2.24 µM; in [5], 27.2 µM; in experiment [6], 16.3 µM. The TGI in experiment [7] stood at 22.6 µM; in experiment [8], 5.4 µM; in [9], 2.45 µM; in experiment [10] it was 14.5 µM.
With `Cc1cc2cc3cc(C)c(N(C)C)cc3[n+](C)c2cc1N(C)C`, the GI50 in experiment [1] is 2.55 µM; in experiment [2], 2.7 µM; in experiment [3], 2.51 µM; in experiment [4] it was 5.04 µM; in experiment [5] it was 2.72 µM; in experiment [6], 4.57 µM. The GI50 in [7] was 3.91 µM; in [8] it was 2.94 µM; in experiment [9], 4.73 µM; in experiment [10], 5.05 µM. Besides, the TGI in experiment [1] is 9.62 µM; in [2], greater than 100 µM; in experiment [3] it was 17.5 µM; in experiment [4] it was greater than 100 µM; in experiment [5], 11.3 µM; in experiment [6], greater than 100 µM. For the same compound, the TGI was greater than 100 µM in experiment [7], greater than 100 µM in [8], 37.7 µM in [9] and 70.7 µM in [10].
For the compound `O=C1CC(c2cccc(O)c2)C2(C(=O)NC(=S)NC2=O)C(c2cccc(O)c2)C1` (stereo not drawn), the GI50 in experiment [1], in experiment [2], in [3], in experiment [4], in experiment [5] and in experiment [6] was greater than 100 µM each time. The GI50 in experiment [7], in experiment [8], in experiment [9] and in experiment [10] was greater than 100 µM throughout. The TGI in experiment [1], in experiment [2], in experiment [3], in experiment [4], in experiment [5] and in [6] was greater than 100 µM in each case. In addition, the TGI in experiment [7], in experiment [8], in [9] and in experiment [10] was greater than 100 µM throughout.
On to `COc1ccc2c(c1O)C13CCN(C)C(C2)C1CCC1(C3)OCCO1` (stereo not drawn), for which the TGI in experiment [1], in experiment [2], in [3], in experiment [4], in [5] and in experiment [6] was greater than 100 µM in each case. The TGI in [7], in [8], in experiment [9] and in [10] was greater than 100 µM throughout.
Consider `Cc1ccc(NC(=O)Cc2ccc(/C=C/C(=O)c3ncc[nH]3)cc2)cc1`, for which the GI50 is 6.42 µM in [1]; 9.62 µM in [2]; 7.27 µM in experiment [3]; 6.47 µM in [4]; 3.09 µM in [5]; 18.1 µM in experiment [6]. Besides, the GI50 was 5.91 µM in experiment [7], 6.47 µM in experiment [8], greater than 25 µM in experiment [9] and 3.01 µM in experiment [10]. Moreover, the TGI in experiment [1] is greater than 25 µM; in [2], greater than 25 µM; in experiment [3], greater than 25 µM; in experiment [4], greater than 25 µM; in [5], 12.7 µM; in [6], greater than 25 µM. Besides, the TGI was greater than 25 µM in experiment [7], greater than 25 µM in [8], greater than 25 µM in [9] and 14.2 µM in experiment [10].
Turning to `S=C(N/N=C(/c1ccccc1)c1ccccn1)N1CCCCC1`, the TGI is 2.53 µM in [1]; 1.66 µM and 2.33 µM in experiment [2]; 1.65 µM and 2.56 µM in experiment [4]; 1.79 µM and 2.11 µM in experiment [5]; 2.01 µM and 2.36 µM in experiment [6]; 2.18 µM and 2.68 µM in experiment [7]. The TGI was 1.01 µM and 2.9 µM in experiment [8]; 1.04 µM and 1.16 µM in experiment [9]; 2.01 µM and 1.54 µM in [10]. Further, the GI50 in experiment [2] is 0.107 µM; in experiment [3], less than 0.001 µM; in [4], less than 0.001 µM; in experiment [5] it was 0.00123 µM; in experiment [6], less than 0.001 µM; in experiment [7], 0.171 µM. Besides, the GI50 in [8] was less than 0.001 µM; in experiment [9] it was less than 0.001 µM; in experiment [10] it was 0.468 µM.
Regarding `Oc1ccc(CN2CCC(N3CCOCC3)CC2)c2cccnc12`, the GI50 in experiment [1] is 31.9 µM; in [2], 29.2 µM; in experiment [3], 49.8 µM; in [4], 30.9 µM; in [5] it was 46.9 µM; in [6] it was 52.8 µM. Further, the GI50 in experiment [7] was 47.5 µM; in [8], 35.5 µM; in [9], 32.3 µM; in experiment [10] it was 14.7 µM. Besides, the TGI in experiment [1], in experiment [2], in [3], in experiment [4], in experiment [5] and in experiment [6] was greater than 100 µM in each case. For the same compound, the TGI in [7] is greater than 100 µM; in experiment [8] it was greater than 100 µM; in [9] it was 76.5 µM; in experiment [10] it was 63.8 µM.
Regarding `COc1cc2cc(C(=O)CCC(=O)O)sc2cc1OC`, the GI50 in [1], in [2], in experiment [3], in experiment [4], in experiment [5] and in experiment [6] was greater than 100 µM in each case. Also, the GI50 was greater than 100 µM in [7], greater than 100 µM in experiment [8], 33.4 µM in experiment [9] and greater than 100 µM in experiment [10]. In addition, the TGI in [1], in experiment [2], in experiment [3], in experiment [4], in [5] and in experiment [6] was greater than 100 µM throughout. The TGI in [7], in experiment [8], in experiment [9] and in experiment [10] was greater than 100 µM throughout.
Regarding `COc1cc(-c2nc3sccn3c2-c2ccnc(NCCNS(=O)(=O)c3ccc(Cl)cc3)n2)ccc1F`, the GI50 in experiment [1] was 2.61 µM; in experiment [2] it was 4.89 µM; in [3] it was 3.48 µM; in experiment [4], 3 µM; in experiment [5], 4.26 µM; in [6], 3.46 µM. The GI50 in [7] is 4.11 µM; in [8], 1.44 µM; in experiment [9], 4.47 µM; in experiment [10], 2.72 µM. In addition, the TGI in [1] was greater than 100 µM; in [2] it was greater than 100 µM; in experiment [3] it was greater than 100 µM; in experiment [4], greater than 100 µM; in experiment [5] it was greater than 100 µM; in experiment [6] it was 35.3 µM. Also, the TGI is greater than 100 µM in experiment [7], 8.46 µM in [8], greater than 100 µM in [9] and greater than 100 µM in experiment [10].
Take `O=c1c2c3c(sc2n2c(-c4cc(-c5ccccc5)no4)nnc2n1Cc1ccccc1)CCCC3`: the GI50 in experiment [1] was 13.7 µM; in experiment [2], 10.2 µM; in experiment [3] it was 1.23 µM; in [4], 8.22 µM; in experiment [5] it was 15.8 µM; in experiment [6] it was 4 µM. In addition, the GI50 in experiment [7] is 22.7 µM; in [8], 3.55 µM; in experiment [9], 23.9 µM; in experiment [10], 27.1 µM. The TGI in [1] was 63.2 µM; in experiment [2], 61.5 µM; in experiment [3], greater than 40.7 µM; in experiment [4] it was 87.6 µM; in [5], 55.2 µM; in experiment [6] it was 23.5 µM. The TGI in experiment [7] was greater than 100 µM; in [8], 22.1 µM; in [9], greater than 74 µM; in [10] it was greater than 100 µM.
